# From PubChem BioAssay AID1963838 (Molecular Pharmacology Branch, DTP, NCI, 2024)
# Test system: 855422-203-R-J1-PDC complex spheroid viability
# Assay: Anticancer human tumor 855422-203-R-J1-PDC patient-derived bladder carcinoma cell line growth inhibition [POLQ]
# Settings: for IC50: curve of first compound; for viability, T/C: stronger effect = lower value
# Procedure, shortened: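 PDC + HUVEC + MSC complex spheroids; POLQ inhibitors ± partner drugs; top conc. at/near clinical Cmax, else 10 microM (SN-38 1 microM), half-log dilutions; 37 degrees C, 5% CO2.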
# 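Note: spheroids exposed to compounds for seven days before readout.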
smiles,measurement,setting,value
CC(=O)O[C@H]1C(=O)[C@@]2(C)[C@H]([C@H](OC(=O)c3ccccc3)[C@]3(O)C[C@H](OC(=O)[C@H](O)[C@@H](NC(=O)c4ccccc4)c4ccccc4)C(C)=C1C3(C)C)[C@]1(OC(C)=O)CO[C@@H]1C[C@@H]2O + COC1C(OC(N)=O)C(O)C(Oc2ccc3c(O)c(NC(=O)c4ccc(O)c(CC=C(C)C)c4)c(=O)oc3c2C)OC1(C)C,IC50,second compound 0.0316 µM,< 9.49 nM
same,IC50,second compound 0.1 µM,< 9.49 nM
same,IC50,second compound 0.316 µM,< 9.49 nM
same,IC50,second compound 1 µM,< 9.49 nM
same,IC50,second compound 3.16 µM,< 9.49 nM
same,IC50,second compound 10 µM,< 9.49 nM
same,"viability, T/C","second compound 0.0316 µM, first compound 0.00949 µM",5.68%
same,"viability, T/C","second compound 0.0316 µM, first compound 0.03 µM",5.82%
same,"viability, T/C","second compound 0.0316 µM, first compound 0.0949 µM",5%
same,"viability, T/C","second compound 0.0316 µM, first compound 0.3 µM",6.46%
same,"viability, T/C","second compound 0.0316 µM, first compound 0.949 µM",5.84%
same,"viability, T/C","second compound 0.0316 µM, first compound 3 µM",5.17%
same,"viability, T/C","second compound 0.1 µM, first compound 0.00949 µM",5.77%
same,"viability, T/C","second compound 0.1 µM, first compound 0.03 µM",6.65%
same,"viability, T/C","second compound 0.1 µM, first compound 0.0949 µM",5.15%
same,"viability, T/C","second compound 0.1 µM, first compound 0.3 µM",4.93%
same,"viability, T/C","second compound 0.1 µM, first compound 0.949 µM",5.98%
same,"viability, T/C","second compound 0.1 µM, first compound 3 µM",4.74%
same,"viability, T/C","second compound 0.316 µM, first compound 0.00949 µM",8.12%
same,"viability, T/C","second compound 0.316 µM, first compound 0.03 µM",6.43%
same,"viability, T/C","second compound 0.316 µM, first compound 0.0949 µM",5.94%
same,"viability, T/C","second compound 0.316 µM, first compound 0.3 µM",4.73%
same,"viability, T/C","second compound 0.316 µM, first compound 0.949 µM",4.96%
same,"viability, T/C","second compound 0.316 µM, first compound 3 µM",5.68%
same,"viability, T/C","second compound 1 µM, first compound 0.00949 µM",7.33%
same,"viability, T/C","second compound 1 µM, first compound 0.03 µM",6.18%
same,"viability, T/C","second compound 1 µM, first compound 0.0949 µM",5.96%
same,"viability, T/C","second compound 1 µM, first compound 0.3 µM",5.56%
same,"viability, T/C","second compound 1 µM, first compound 0.949 µM",6.11%
same,"viability, T/C","second compound 1 µM, first compound 3 µM",6.43%
same,"viability, T/C","second compound 3.16 µM, first compound 0.00949 µM",6.84%
same,"viability, T/C","second compound 3.16 µM, first compound 0.03 µM",6.73%
same,"viability, T/C","second compound 3.16 µM, first compound 0.0949 µM",5.34%
same,"viability, T/C","second compound 3.16 µM, first compound 0.3 µM",5.02%
same,"viability, T/C","second compound 3.16 µM, first compound 0.949 µM",5.62%
same,"viability, T/C","second compound 3.16 µM, first compound 3 µM",6.32%
same,"viability, T/C","second compound 10 µM, first compound 0.00949 µM",7.25%
same,"viability, T/C","second compound 10 µM, first compound 0.03 µM",6.33%
same,"viability, T/C","second compound 10 µM, first compound 0.0949 µM",5.51%
same,"viability, T/C","second compound 10 µM, first compound 0.3 µM",5.78%
same,"viability, T/C","second compound 10 µM, first compound 0.949 µM",5.59%
same,"viability, T/C","second compound 10 µM, first compound 3 µM",6.4%
CCc1c2c(nc3ccc(O)cc13)-c1cc3c(c(=O)n1C2)COC(=O)[C@]3(O)CC + COC1C(OC(N)=O)C(O)C(Oc2ccc3c(O)c(NC(=O)c4ccc(O)c(CC=C(C)C)c4)c(=O)oc3c2C)OC1(C)C,IC50,second compound 0.0316 µM,< 3.16 nM
same,IC50,second compound 0.1 µM,< 3.16 nM
same,IC50,second compound 0.316 µM,< 3.16 nM
same,IC50,second compound 1 µM,< 3.16 nM
same,IC50,second compound 3.16 µM,< 3.16 nM
same,IC50,second compound 10 µM,< 3.16 nM
same,"viability, T/C","second compound 0.0316 µM, first compound 0.00316 µM",40.8%
same,"viability, T/C","second compound 0.0316 µM, first compound 0.01 µM",16.8%
same,"viability, T/C","second compound 0.0316 µM, first compound 0.0316 µM",7.82%
same,"viability, T/C","second compound 0.0316 µM, first compound 0.1 µM",5.58%
same,"viability, T/C","second compound 0.0316 µM, first compound 0.316 µM",4.71%
same,"viability, T/C","second compound 0.0316 µM, first compound 1 µM",1.63%
same,"viability, T/C","second compound 0.1 µM, first compound 0.00316 µM",40.5%
same,"viability, T/C","second compound 0.1 µM, first compound 0.01 µM",14.3%
same,"viability, T/C","second compound 0.1 µM, first compound 0.0316 µM",8.6%
same,"viability, T/C","second compound 0.1 µM, first compound 0.1 µM",6.16%
same,"viability, T/C","second compound 0.1 µM, first compound 0.316 µM",3.09%
same,"viability, T/C","second compound 0.1 µM, first compound 1 µM",1.68%
same,"viability, T/C","second compound 0.316 µM, first compound 0.00316 µM",42.7%
same,"viability, T/C","second compound 0.316 µM, first compound 0.01 µM",15.7%
same,"viability, T/C","second compound 0.316 µM, first compound 0.0316 µM",9.73%
same,"viability, T/C","second compound 0.316 µM, first compound 0.1 µM",5.82%
same,"viability, T/C","second compound 0.316 µM, first compound 0.316 µM",4.86%
same,"viability, T/C","second compound 0.316 µM, first compound 1 µM",1.54%
same,"viability, T/C","second compound 1 µM, first compound 0.00316 µM",33.4%
same,"viability, T/C","second compound 1 µM, first compound 0.01 µM",14.5%
same,"viability, T/C","second compound 1 µM, first compound 0.0316 µM",9.49%
same,"viability, T/C","second compound 1 µM, first compound 0.1 µM",5.81%
same,"viability, T/C","second compound 1 µM, first compound 0.316 µM",3.09%
same,"viability, T/C","second compound 1 µM, first compound 1 µM",2.46%
same,"viability, T/C","second compound 3.16 µM, first compound 0.00316 µM",26.4%
same,"viability, T/C","second compound 3.16 µM, first compound 0.01 µM",11.5%
same,"viability, T/C","second compound 3.16 µM, first compound 0.0316 µM",8.08%
same,"viability, T/C","second compound 3.16 µM, first compound 0.1 µM",4.59%
same,"viability, T/C","second compound 3.16 µM, first compound 0.316 µM",2.7%
same,"viability, T/C","second compound 3.16 µM, first compound 1 µM",1.71%
same,"viability, T/C","second compound 10 µM, first compound 0.00316 µM",14.7%
same,"viability, T/C","second compound 10 µM, first compound 0.01 µM",11.2%
same,"viability, T/C","second compound 10 µM, first compound 0.0316 µM",7.82%
same,"viability, T/C","second compound 10 µM, first compound 0.1 µM",6.39%
same,"viability, T/C","second compound 10 µM, first compound 0.316 µM",3.19%
same,"viability, T/C","second compound 10 µM, first compound 1 µM",1.43%
